Measured values from US9981972B2, “N-hydroxy bicyclic hydantoin carbamates as tools for identification of serine hydrolase targets” (ABIDE THERAPEUTICS, INC., priority 2014, dated 2018).
≈ marks a conversion by molar mass, not a printed value.

Key:
LYPLA1/2 = assay: Gel filtration to assess mode of action, HeLa cell lysate; type: biochemical, human; details: 200 nM or 1000 nM, FP-Rh labeling before and after gel filtration
Experimental: In this assay, a complex proteome was incubated with test compound and a fraction of the assay mixture was passaged over a Sephadex G-25M column before reaction with FP-Rh and SDS-PAGE analysis as described above.
Protocol Summary: HeLa cell lysate (1 mL of 1 mg/ml in DPBS) was treated with test compound (200 nM or 1000 nM, from 50× stock in DMSO) or DMSO only (no compound control). Test compounds were incubated for 30 minutes at 37° C. An aliquot (50 μL) was removed from each reaction, and the remaining sample was passaged over a Sephadex G-25M desalting column. An aliquot (50 μL, 1 mg/mL protein, eluted in DPBS) was removed, and pre- and post-filtration aliquots were reacted with FP-Rh (50× stock in DMSO; 2 μM final concentration). The reaction was incubated for 30 minutes at 25° C., quenched with 16 μL 4× SDS-PAGE loading buffer (reducing), separated by SDS-PAGE and visualized by in-gel fluorescent scanning. The percentage activity remaining was determined by measuring the integrated optical density of the LYPLA1/2 bands (quantified together) relative to a DMSO-only (no compound) control. The percent recovery was calculated by comparing percent inhibition before and after gel filtration for each test compound concentration.

MAGL = target: T1, MAGL (Homo sapiens, UniProt Q99685); assay: Selectivity analysis by ABPP-SILAC, HeLa cells in situ, FP-biotin; type: cell-based; details: 2 h in situ
T1 construct: endogenous in cells; host or cells: HeLa
Source text: (§1) Competitive ABPP-SILAC (Adibekian, A., et al. J Am Chem Soc, 2012. 134(25): p. 10345-8) combined competitive ABPP (Leung, D., et al. Nat Biotechnol, 2003. 21(6): p. 687-91) with stable isotope labeling of cells (SILAC) (Ong, S. E., et al. Mol Cell Proteomics, 2002. 1(5): p. 376-86), and allowed for precise quantitation of enzyme inhibition by calculating the isotopic ratios of peptides from inhibitor-treated and control cells.
(§2) Assay Overview: The purpose of this assay was to determine the selectivity profile of powder samples of test compounds using stable isotope labeling with amino acids in cell culture (SILAC) ABPP. In this assay, cultured HeLa cells were metabolically labeled with light or heavy amino acids. Light and heavy cells were treated with inhibitor and DMSO, respectively, in situ. Cells were harvested, and proteome fractions were isolated and reacted with the serine-hydrolase-specific activity-based affinity probe fluorophosphonate-biotin (FP-biotin). Light and heavy samples were combined in a 1:1 (w/w) ratio. Biotinylated proteins were enriched, trypsinized, and analyzed by LC/LC-MS/MS (MudPIT) Inhibition of target and anti-target activity was quantified by comparing intensities of light and heavy peptide peaks. […] Proteins not targeted by inhibitors were expected to have a ratio close to 1.
(§3) Sample Preparation. HeLa cells were initially grown for at least eight passages in either light or heavy SILAC DMEM medium supplemented with 10% dialyzed FCS and 1× PenStrep Glutamine in a humidified incubator (37° C., 5% CO2). Light medium was supplemented with 100 μg/mL L-arginine (Sigma) and 100 μg/mL L-lysine (Sigma). Heavy medium was supplemented with 100 μg/mL [13C615N4]-L-Arginine (Isotek) and 100 μg/mL [13C615N2]-L-Lysine (Isotek). […]
(§4) LC-MS/MS analysis. Samples were analyzed by multidimensional liquid chromatography tandem mass spectrometry (MudPIT) using an Agilent 1200-series quaternary pump and Thermo Scientific LTQ Orbitrap Velos ion trap mass spectrometer. […]

human LYPLA1/2 = assay: as above; type: cell-based; details: 1 μM, 2 h in situ
Source text: as §1, §2, §3, §4

ABHD6 = target: T2, ABHD6 (Homo sapiens, UniProt Q9BV23); assay: as above; type: cell-based; details: 2 h in situ, read-out: inhibition of anti-target ABHD6 (ABPP-SILAC)
T2 construct: endogenous in cells; host or cells: HeLa
Source text: as §1, §2, §3, §4

[1] = Solubility in media (DMEM+10% FBS); type: physicochemical; details: plasma or biological fluid, kinetic from dmso stock, complete media (DMEM+10% FBS), 22° C., read-out: solubility in DMEM containing 10% serum
Experimental: Solubility in Media: The solubility of compounds were tested in triplicate in complete media (DMEM+10% FBS). Per well, 198 μL PBS is added to a Millipore Solvinert Hydrophilic PTFE 96 well filter plate: pore size: 0.45 μm (MSRLN0450). Test compounds were introduced from 10 mM DMSO stock solutions (2 μL). The final concentration of DMSO was 1 percent. Samples were allowed to incubate at 22° C. for 18 hours. In the morning the plate was centrifuged where the soluble portion passed through the filter and was collected in a capture plate. The samples were analyzed by HPLC (Agilent 1100 with diode-array detector). Peak area was compared to a standard of known concentration.

T2 sequence (Q9BV23 whole entry): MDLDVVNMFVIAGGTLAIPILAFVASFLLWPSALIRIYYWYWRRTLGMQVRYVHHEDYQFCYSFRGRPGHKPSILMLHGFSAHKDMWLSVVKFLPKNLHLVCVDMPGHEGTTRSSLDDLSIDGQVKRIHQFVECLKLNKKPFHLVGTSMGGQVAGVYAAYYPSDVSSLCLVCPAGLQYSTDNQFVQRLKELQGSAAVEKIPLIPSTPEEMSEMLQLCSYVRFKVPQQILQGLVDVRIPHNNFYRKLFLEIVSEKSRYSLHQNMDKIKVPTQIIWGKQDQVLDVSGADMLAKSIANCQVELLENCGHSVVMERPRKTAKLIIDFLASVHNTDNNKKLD
T1 sequence (Q99685 whole entry): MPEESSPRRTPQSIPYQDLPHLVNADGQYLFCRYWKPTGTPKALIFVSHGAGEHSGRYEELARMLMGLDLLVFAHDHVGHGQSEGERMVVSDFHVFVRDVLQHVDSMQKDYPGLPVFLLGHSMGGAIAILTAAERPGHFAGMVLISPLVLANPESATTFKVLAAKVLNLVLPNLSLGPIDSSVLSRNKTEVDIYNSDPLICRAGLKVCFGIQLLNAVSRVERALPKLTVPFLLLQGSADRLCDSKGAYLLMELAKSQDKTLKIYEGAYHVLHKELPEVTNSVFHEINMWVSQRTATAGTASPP

inhibition at 1 µM (MAGL): ~40% | inhibition at 1 µM (ABHD6): > 90% | solubility at 18 h [1]: 46 µM (≈ 24.6 µg/mL)
Structure (SMILES): O=C(ON1C(=O)C2CN(C(=O)N3CCOCC3)CCN2C1=O)N1CCC(CCc2ccc(Cl)cc2)CC1 (centres unmarked) [Compound 1, 7-(morpholine-4-carbonyl)-1,3-dioxohexahydroimidazo[1,5-a]pyrazin-2(3H)-yl 4-(4-chloro-phenethyl)piperidine-1-carboxylate]
binding mode (gel filtration) (LYPLA1/2): irreversible inhibitor | inhibition of human LYPLA1/2 (ABPP-SILAC) (human LYPLA1/2): > 90%
